# In publication PMC8480901 (PLoS ONE, 2021):
# Values joined by “and” are separate entries in the source; they are usually repeats but may differ in a detail not shown here. Equal entries are not always repeated.
# Test system: J774.2 mouse macrophages
# Experiment: LPS-induced cytokine and chemokine levels in J774.2 mouse macrophage cell supernatant (ELISA)
# Type: cell-based
# Details: for CXCL1 % reduction / CXCL1 [pg/mL] Mean / CXCL2 % reduction / CXCL2 [pg/mL] Mean / MMP9 % reduction / MMP9 [pg/mL] Mean: J774.2 cells; for CXCL1 % reduction / CXCL1 [pg/mL] Mean / CXCL2 % reduction / CXCL2 [pg/mL] Mean / MMP9 % reduction / MMP9 [pg/mL] Mean / CCl2, % reduction / CCl2, Mean / GM-CSF % reduction / GM-CSF Mean / IL-1β % reduction / IL-1β Mean / IL-6 % reduction / IL-6 Mean / TNF-α % reduction / TNF-α Mean / CCl2 / CXCL1 / GM-CSF / IL-1β / IL-6 / TNF-α: LPS; for CCl2, % reduction / CCl2, Mean / GM-CSF % reduction / GM-CSF Mean / IL-1β % reduction / IL-1β Mean / IL-6 % reduction / IL-6 Mean / TNF-α % reduction / TNF-α Mean / CCl2 / CXCL1 / GM-CSF / IL-1β / IL-6 / TNF-α: J774.2 supernatant; for CCl2 / CXCL1 / GM-CSF / IL-1β / IL-6 / TNF-α: individual replicate
structure (smiles),measurement,setting,value
CC[C@H]1OC(=O)[C@H](C)[C@@H](O[C@H]2C[C@@](C)(OC)[C@@H](O)[C@H](C)O2)[C@H](C)[C@@H](O[C@@H]2O[C@H](C)C[C@H](N(C)C)[C@H]2O)[C@](C)(O)C[C@@H](C)CN(C)[C@H](C)[C@@H](O)[C@]1(C)O [Azithromycin],CXCL1 % reduction,compound 0.03 µM,-14%
same,CXCL1 [pg/mL] Mean,compound 0.03 µM,29 pg/mL
same,CXCL2 % reduction,compound 0.03 µM,36%
same,CXCL2 [pg/mL] Mean,compound 0.03 µM,20828 pg/mL
same,MMP9 % reduction,compound 0.03 µM,-31%
same,MMP9 [pg/mL] Mean,compound 0.03 µM,1243 pg/mL
same,CXCL1 % reduction,compound 0.1 µM,-29%
same,CXCL1 [pg/mL] Mean,compound 0.1 µM,33 pg/mL
same,CXCL2 % reduction,compound 0.1 µM,38%
same,CXCL2 [pg/mL] Mean,compound 0.1 µM,20316 pg/mL
same,MMP9 % reduction,compound 0.1 µM,-12%
same,MMP9 [pg/mL] Mean,compound 0.1 µM,1072 pg/mL
same,CXCL1 % reduction,compound 0.3 µM,-11%
same,CXCL1 [pg/mL] Mean,compound 0.3 µM,28 pg/mL
same,CXCL2 % reduction,compound 0.3 µM,29%
same,CXCL2 [pg/mL] Mean,compound 0.3 µM,23099 pg/mL
same,MMP9 % reduction,compound 0.3 µM,-7%
same,MMP9 [pg/mL] Mean,compound 0.3 µM,1027 pg/mL
same,CXCL1 % reduction,compound 1 µM,-18%
same,CXCL1 [pg/mL] Mean,compound 1 µM,30 pg/mL
same,CXCL2 % reduction,compound 1 µM,13%
same,CXCL2 [pg/mL] Mean,compound 1 µM,28283 pg/mL
same,MMP9 % reduction,compound 1 µM,-11%
same,CXCL1 % reduction,compound 3 µM,-30%
same,CXCL1 [pg/mL] Mean,compound 3 µM,33 pg/mL
same,CXCL2 % reduction,compound 3 µM,51%
same,CXCL2 [pg/mL] Mean,compound 3 µM,15868 pg/mL
same,MMP9 % reduction,compound 3 µM,-14%
same,MMP9 [pg/mL] Mean,compound 3 µM,1088 pg/mL
same,CXCL1 % reduction,compound 10 µM,-51%
same,CXCL1 [pg/mL] Mean,compound 10 µM,39 pg/mL
same,CXCL2 % reduction,compound 10 µM,45%
same,CXCL2 [pg/mL] Mean,compound 10 µM,18014 pg/mL
same,MMP9 % reduction,compound 10 µM,11%
same,MMP9 [pg/mL] Mean,compound 10 µM,860 pg/mL
same,CXCL1 % reduction,compound 30 µM,-135%
same,CXCL1 [pg/mL] Mean,compound 30 µM,60 pg/mL
same,CXCL2 % reduction,compound 30 µM,26%
same,CXCL2 [pg/mL] Mean,compound 30 µM,23980 pg/mL
same,MMP9 % reduction,compound 30 µM,47%
same,MMP9 [pg/mL] Mean,compound 30 µM,539 pg/mL
same,CXCL1 % reduction,compound 100 µM,-128%
same,CXCL1 [pg/mL] Mean,compound 100 µM,58 pg/mL
same,CXCL2 % reduction,compound 100 µM,35%
same,CXCL2 [pg/mL] Mean,compound 100 µM,21270 pg/mL
same,MMP9 % reduction,compound 100 µM,70%
same,MMP9 [pg/mL] Mean,compound 100 µM,332 pg/mL
same,"levels of the measured LPS-induced cytokines, chemokines, or MMP-9 in supernatants","J774.2 mouse macrophages, concentrations tested (0.03 to 10 μM shown)",little to no reduction
same,"CCl2, % reduction",0.03 µM,18%
same,"CCl2, Mean",0.03 µM,29824 pg/mL
same,GM-CSF % reduction,0.03 µM,64%
same,GM-CSF Mean,0.03 µM,507 pg/mL
same,IL-1β % reduction,0.03 µM,-40%
same,IL-1β Mean,0.03 µM,266 pg/mL
same,IL-6 % reduction,0.03 µM,9%
same,IL-6 Mean,0.03 µM,70233 pg/mL
same,TNF-α % reduction,0.03 µM,-11%
same,TNF-α Mean,0.03 µM,1517 pg/mL
same,CCl2,0.03 µM,28757.8 pg/mL and 30890.3 pg/mL
same,CXCL1,0.03 µM,31.2 pg/mL and 27.2 pg/mL
same,GM-CSF,0.03 µM,560.6 pg/mL and 452.6 pg/mL
same,IL-1β,0.03 µM,258.52 pg/mL and 274.336 pg/mL
same,IL-6,0.03 µM,75760 pg/mL and 64706 pg/mL
same,TNF-α,0.03 µM,1559.1 pg/mL and 1475.0 pg/mL
same,"CCl2, % reduction",0.1 µM,25%
same,"CCl2, Mean",0.1 µM,27461 pg/mL
same,GM-CSF % reduction,0.1 µM,56%
same,GM-CSF Mean,0.1 µM,616 pg/mL
same,IL-1β % reduction,0.1 µM,-16%
same,IL-1β Mean,0.1 µM,222 pg/mL
same,IL-6 % reduction,0.1 µM,-5%
same,IL-6 Mean,0.1 µM,81359 pg/mL
same,TNF-α % reduction,0.1 µM,-22%
same,TNF-α Mean,0.1 µM,1665 pg/mL
same,CCl2,0.1 µM,26336.9 pg/mL and 28584.6 pg/mL
same,CXCL1,0.1 µM,32.4 pg/mL and 33.7 pg/mL
same,GM-CSF,0.1 µM,657.0 pg/mL and 575.0 pg/mL
same,IL-1β,0.1 µM,219.952 pg/mL and 223.825 pg/mL
same,IL-6,0.1 µM,80523 pg/mL and 82194 pg/mL
same,TNF-α,0.1 µM,1716.4 pg/mL and 1614.2 pg/mL
same,"CCl2, % reduction",0.3 µM,20%
same,"CCl2, Mean",0.3 µM,29163 pg/mL
same,GM-CSF % reduction,0.3 µM,72%
same,GM-CSF Mean,0.3 µM,397 pg/mL
same,IL-1β % reduction,0.3 µM,9%
same,IL-1β Mean,0.3 µM,173 pg/mL
same,IL-6 % reduction,0.3 µM,8%
same,IL-6 Mean,0.3 µM,71113 pg/mL
same,TNF-α % reduction,0.3 µM,-8%
same,TNF-α Mean,0.3 µM,1475 pg/mL
same,CCl2,0.3 µM,28466.3 pg/mL and 29859.2 pg/mL
same,CXCL1,0.3 µM,27.1 pg/mL and 29.7 pg/mL
same,GM-CSF,0.3 µM,346.8 pg/mL and 446.6 pg/mL
same,IL-1β,0.3 µM,173.433 pg/mL and 172.638 pg/mL
same,IL-6,0.3 µM,72113 pg/mL and 70113 pg/mL
same,TNF-α,0.3 µM,1462.3 pg/mL and 1488.2 pg/mL
